Key:
[1] = molecular target: CYP2C8 (Homo sapiens, UniProt P10632); experiment: Stability assessed as recombinant human CYP2C8 mediated compound metabolism by measuring parent compound remaining after 30 mins relative to control; type: ADME; details: read-out: Stability
[2] = test system: Mus musculus; experiment: Antidiabetic activity in ob/ob mouse assessed as reduction in decrease in HbA1c level at 3 mg/kg, po dosed once every three days for 31 day relative to control; type: functional; parameters: scale not given: the % may be the effect or the level left
[3] = molecular target: CYP2A6 (Homo sapiens, UniProt P11509); experiment: Stability assessed as recombinant human CYP2A6 mediated compound metabolism by measuring parent compound remaining after 30 mins relative to control; type: ADME; details: read-out: Stability
[4] = molecular target: T1, Cytochrome P450 1A2 (Homo sapiens, UniProt P05177); experiment: Inhibition of recombinant human CYP1A2; type: ADME
T1 sequence (P05177 whole entry): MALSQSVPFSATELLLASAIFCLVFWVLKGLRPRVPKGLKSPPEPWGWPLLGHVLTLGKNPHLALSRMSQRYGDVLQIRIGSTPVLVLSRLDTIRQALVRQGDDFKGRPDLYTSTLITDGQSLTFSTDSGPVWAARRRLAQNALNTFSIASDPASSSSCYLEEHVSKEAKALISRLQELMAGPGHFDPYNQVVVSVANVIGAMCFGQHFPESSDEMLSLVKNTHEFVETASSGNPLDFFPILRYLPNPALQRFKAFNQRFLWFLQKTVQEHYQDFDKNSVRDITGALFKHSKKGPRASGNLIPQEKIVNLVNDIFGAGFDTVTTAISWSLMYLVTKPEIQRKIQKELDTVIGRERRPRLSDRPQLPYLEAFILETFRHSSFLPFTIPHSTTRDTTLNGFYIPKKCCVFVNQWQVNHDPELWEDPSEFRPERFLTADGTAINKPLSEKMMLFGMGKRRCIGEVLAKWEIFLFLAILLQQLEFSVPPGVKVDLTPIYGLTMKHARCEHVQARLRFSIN

[5] = molecular target: T2, Cytochrome P450 2A6 (Homo sapiens, UniProt P11509); experiment: Inhibition of recombinant human CYP2A6; type: ADME
T2 sequence (P11509 whole entry): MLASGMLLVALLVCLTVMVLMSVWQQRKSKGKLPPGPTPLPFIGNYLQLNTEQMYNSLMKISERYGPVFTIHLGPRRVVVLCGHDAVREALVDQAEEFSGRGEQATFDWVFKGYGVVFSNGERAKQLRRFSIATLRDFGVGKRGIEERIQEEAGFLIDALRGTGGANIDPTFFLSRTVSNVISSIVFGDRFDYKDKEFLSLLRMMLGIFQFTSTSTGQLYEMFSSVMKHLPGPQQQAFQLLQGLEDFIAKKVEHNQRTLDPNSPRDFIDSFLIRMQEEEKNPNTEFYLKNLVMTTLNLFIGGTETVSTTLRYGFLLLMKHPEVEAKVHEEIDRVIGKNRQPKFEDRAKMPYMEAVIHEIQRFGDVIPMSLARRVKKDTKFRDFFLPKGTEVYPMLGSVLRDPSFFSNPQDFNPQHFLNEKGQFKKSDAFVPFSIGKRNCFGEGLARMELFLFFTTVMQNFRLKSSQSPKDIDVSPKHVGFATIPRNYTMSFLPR

[6] = Toxicity in ob/ob mouse assessed as induction of body weight gain at 1 to 10 mg/kg, po dosed once every three days for 31 days; type: organism-based; details: in vivo, 744 h
[7] = AUC in male Sprague-Dawley rat during 3-month repeated dose toxicology study; type: ADME; details: in vivo
[8] = molecular target: Dipeptidyl peptidase 4 (Mus musculus) (UniProt P28843); experiment: Ex-vivo inhibition of DPP4 in plasma isolated from ob/ob mouse assessed as time duration during which DPP4 inhibition rate stays above 80% treated at 30 mg/kg, po measured after 2 to 72 hrs by fluorescence based assay; type: functional, organism-based
Sequence of Dipeptidyl peptidase 4 (Mus musculus) (P28843 whole entry, looked up): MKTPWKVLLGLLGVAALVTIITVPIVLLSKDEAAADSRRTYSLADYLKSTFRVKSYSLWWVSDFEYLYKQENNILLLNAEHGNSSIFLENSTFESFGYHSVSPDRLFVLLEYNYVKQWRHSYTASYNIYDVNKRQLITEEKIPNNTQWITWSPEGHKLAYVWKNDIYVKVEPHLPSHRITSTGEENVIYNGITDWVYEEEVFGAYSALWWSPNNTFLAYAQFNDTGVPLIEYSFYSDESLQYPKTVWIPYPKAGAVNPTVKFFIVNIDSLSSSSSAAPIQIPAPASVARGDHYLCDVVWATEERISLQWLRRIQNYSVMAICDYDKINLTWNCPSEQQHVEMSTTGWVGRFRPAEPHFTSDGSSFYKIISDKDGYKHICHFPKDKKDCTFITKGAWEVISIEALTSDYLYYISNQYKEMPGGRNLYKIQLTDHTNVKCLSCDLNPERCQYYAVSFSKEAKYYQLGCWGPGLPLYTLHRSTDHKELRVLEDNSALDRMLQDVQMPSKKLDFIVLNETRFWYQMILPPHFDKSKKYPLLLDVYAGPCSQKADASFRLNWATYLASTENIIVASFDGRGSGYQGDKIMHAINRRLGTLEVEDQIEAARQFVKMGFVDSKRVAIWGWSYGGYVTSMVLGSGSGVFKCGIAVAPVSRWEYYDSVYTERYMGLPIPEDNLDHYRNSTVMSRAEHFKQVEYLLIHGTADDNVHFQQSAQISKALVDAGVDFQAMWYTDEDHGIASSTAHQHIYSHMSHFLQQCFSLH

Sequence of CYP2C8 (P10632 whole entry): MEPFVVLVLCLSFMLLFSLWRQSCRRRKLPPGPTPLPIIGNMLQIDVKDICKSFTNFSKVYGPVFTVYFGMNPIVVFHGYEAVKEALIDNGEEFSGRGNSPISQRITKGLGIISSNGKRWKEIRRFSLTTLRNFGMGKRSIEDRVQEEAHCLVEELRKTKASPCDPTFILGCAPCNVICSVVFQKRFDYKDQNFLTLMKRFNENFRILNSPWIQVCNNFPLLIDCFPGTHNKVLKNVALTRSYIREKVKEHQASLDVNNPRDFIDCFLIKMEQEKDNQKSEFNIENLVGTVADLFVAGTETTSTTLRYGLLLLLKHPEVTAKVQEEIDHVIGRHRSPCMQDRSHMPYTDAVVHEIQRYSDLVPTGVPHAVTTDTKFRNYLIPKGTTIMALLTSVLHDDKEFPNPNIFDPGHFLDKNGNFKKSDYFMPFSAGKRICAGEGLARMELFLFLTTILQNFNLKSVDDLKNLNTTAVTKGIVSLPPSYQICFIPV

CS(=O)(=O)n1cc2c(n1)CN([C@@H]1C[C@H](N)[C@@H](c3cc(F)ccc3F)O[C@@H]1C(F)(F)F)C2 [COFROGLIPTIN]
remaining at 0.5 h [1]: > 95%
Activity [2]: 19.1%
remaining at 0.5 h [3]: > 95%
IC50 [4]: > 100 µM
IC50 [5]: > 100 µM
Activity [6]: Toxic
AUC [7]: 3600 µg·h/mL
TIME [8]: 72 h
